{
  "source": "paper PMC5899833",
  "about": "“Population pharmacokinetics/pharmacodynamics of micafungin against Candida species in obese, critically ill, and morbidly obese critically ill patients” (Critical Care, 2018)",
  "experiment": "Population pharmacokinetic model of total plasma micafungin in patients",
  "type": "in vivo, human",
  "details": "31 patients; for clearance: human",
  "description": "A pharmacokinetic study was carried out in patients under micafungin empirical or directed treatment for invasive candidiasis. The population consisted of 11 morbidly obese critically ill adult patients (from the Hospital Universitario La Paz, Madrid, Spain), 10 nonobese critically ill patients, and 10 obese noncritically ill patients (from the Hospital del Mar, Barcelona, Spain). Patients admitted to ICUs were those considered to be critically ill. The study protocol was approved by the Ethics Committee of the Hospital La Paz (Madrid, Spain) and the Hospital del Mar (Barcelona, Spain). Written informed consent was obtained from patients (or relatives if the patient was unable to provide due to their critical situation) before blood sampling.\nDemographic and clinical data prior to initiation of antifungal treatment were collected. Severity (Simplified Acute Physiology Score (SAPS) II), Sequential Organ Failure Assessment (SOFA) score, and risk for invasive candidiasis (Candida score) (except for patients with microbiologically documented infections) were calculated. Patients received dosage regimens of once-daily 100 mg or 150 mg micafungin (Astellas Pharma S.A., Spain) diluted in 100 ml isotonic saline solution that was intravenously infused over 60 min at the discretion of the treating physician (following the prescribing information and hospital treatment guidelines). On day 3, blood samples were collected at baseline (predose) and after 1, 3, 5, 8, 18, and 24 h. Additional blood samples at day 0 and day 7 were collected when feasible.\nTotal micafungin concentrations in plasma were measured by a validated ultra-high-performance liquid chromatography (UHPLC)-tandem mass spectrometry (MS/MS) method, from 0.2 to 30 μg/ml, on a Shimadzu Nexera 2 UHPLC system coupled to a Shimadzu 8030+ triple quadruple mass spectrometer (Shimadzu, Kyoto, Japan). Clinical samples were assayed alongside plasma calibrators and quality controls and met batch acceptance criteria.\nTo describe total micafungin concentrations, one- and two-compartment models were developed with the nonparametric adaptive grid algorithm within the freely available Pmetrics software package for R (Los Angeles, CA, USA). Elimination from the central compartment, and intercompartmental distribution into the peripheral compartment (two-compartment model), were modeled as first-order processes. The discrimination between different models resulted from the comparison of the −2 log-likelihood (−2LL). A p value of < 0.05 was considered statistically significant.\nAge, gender, body weight, body mass index (BMI), Acute Physiology and Chronic Health Evaluation (APACHE) II, serum creatinine concentration, measured creatinine clearance, Cockroft-Gault estimated creatinine clearance, and serum albumin concentration were evaluated as covariates. Covariate selection was performed using a stepwise linear regression from R on all covariates and Bayesian posterior parameters. Potential covariates were separately entered into the model and statistically tested by use of the –2LL values.\nGoodness-of-fit was assessed by linear regression, with an observed-predicted plot, coefficients of determination, and LL values. Predictive performance evaluation was based on mean error of prediction (bias) and mean bias-adjusted squared error of prediction (imprecision) of the population and individual prediction models. The internal validity of the population pharmacokinetic model was assessed by the bootstrap resampling method (n = 1000) and normalized prediction distribution errors (NPDE). Using a visual predictive check method, parameters obtained from the bootstrap method were plotted with the observed concentrations. NPDE plots were checked for normal distribution characteristics and trends in data errors. […]",
  "key": {"[1]": {"details": "final two-compartment covariate population PK model, 100 or 150 mg once daily iv"}, "[2]": {"details": "final two-compartment covariate population PK model, 100 or 150 mg once daily iv, SD"}},
  "note": "Read-outs that look alike come from different tables or passages of the source. Starred links: 1 amine or outer side, 2 acyl side, 3 side chain; linkers in the order of their positions; H or OH if unused. Positions of bridges follow the written chain, without caps; N, C: chain ends. Non-standard residues stand in square brackets, D forms with d. Residues, ends and D or L forms follow the SMILES beside them. *: point of attachment. hTyr(3S-OH,4S-OH,3'-OSO3H) = N[C@H](C(=O)O)[C@H](O)[C@@H](O)c1ccc(O)c(OS(=O)(=O)O)c1; Orn(4R-OH,5R-OH) = O=C([C@H](C[C@@H](O)[C@@H](O)N[*:3])N[*:1])[*:2]; Pro(3S-OH,4S-Me) = C[C@H]1CN[C@H](C(=O)O)[C@H]1O; X1 = CCCCCOc1ccc(-c2cc(-c3ccc(C(=O)*)cc3)no2)cc1; Gln(3R-OH) = NC(=O)C[C@@H](O)[C@H](N)C(=O)O; Hyp = O=C(O)[C@@H]1C[C@@H](O)CN1",
  "data": [
    {"smiles": "CCCCCOc1ccc(-c2cc(-c3ccc(C(=O)N[C@H]4C[C@@H](O)[C@@H](O)NC(=O)[C@@H]5[C@@H](O)[C@@H](C)CN5C(=O)[C@H]([C@H](O)CC(N)=O)NC(=O)[C@H]([C@H](O)[C@@H](O)c5ccc(O)c(OS(=O)(=O)O)c5)NC(=O)[C@@H]5C[C@@H](O)CN5C(=O)[C@H]([C@@H](C)O)NC4=O)cc3)no2)cc1", "note": "[micafungin] (X1-[Orn(4R-OH,5R-OH)]T[Hyp][hTyr(3S-OH,4S-OH,3'-OSO3H)][Gln(3R-OH)][Pro(3S-OH,4S-Me)]; lactam 1-C)", "values": [
      {"measurement": "Central volume, median", "setting": "[1]", "result": 16.34, "unit": "L"},
      {"measurement": "kcp, median", "setting": "[1]", "result": 0.26, "unit": "h⁻¹"},
      {"measurement": "kpc, median", "setting": "[1]", "result": 0.14, "unit": "h⁻¹"},
      {"measurement": "Central volume, mean ± SD", "setting": "[2]", "result": "16.34 ± 5.87", "unit": "L"},
      {"measurement": "kcp (rate constant central to peripheral compartment), mean ± SD", "setting": "[2]", "result": "0.38 ± 0.37", "unit": "h⁻¹"},
      {"measurement": "kpc (rate constant peripheral to central compartment), mean ± SD", "setting": "[2]", "result": "0.32 ± 0.31", "unit": "h⁻¹"},
      {"measurement": "clearance", "setting": "plasma, iv, final two-compartment covariate population PK model, 100 or 150 mg once daily iv, read-out: Clearance, median (converted)", "result": 12.2, "unit": "mL/min"},
      {"measurement": "clearance", "setting": "final two-compartment covariate population PK model (weight, age on CL), 100 or 150 mg once daily iv over 60 min, 242 total plasma concentrations, UHPLC-MS/MS, SD, read-out: Clearance, mean ± SD (converted)", "result": 13.3, "unit": "mL/min"}
    ]}
  ]
}
